Experimental data reported in article PMC10788917 (Journal of Medicinal Chemistry, 2023).

target: T1, HDAC8 Cys102Ser/Cys153Ser/Cys275Ser (Homo sapiens, UniProt Q9BY41, C102S/C153S/C275S); test: HDAC8 mutant biochemical assay; conditions: read-out: IC50 [μM] @ 100 nM HDAC8: F Cys102Ser/Cys153Ser/Cys275Ser, 1 h preincubation
T1 construct: made in house
T1 sequence (Q9BY41 1-377 C102S/C153S/C275S): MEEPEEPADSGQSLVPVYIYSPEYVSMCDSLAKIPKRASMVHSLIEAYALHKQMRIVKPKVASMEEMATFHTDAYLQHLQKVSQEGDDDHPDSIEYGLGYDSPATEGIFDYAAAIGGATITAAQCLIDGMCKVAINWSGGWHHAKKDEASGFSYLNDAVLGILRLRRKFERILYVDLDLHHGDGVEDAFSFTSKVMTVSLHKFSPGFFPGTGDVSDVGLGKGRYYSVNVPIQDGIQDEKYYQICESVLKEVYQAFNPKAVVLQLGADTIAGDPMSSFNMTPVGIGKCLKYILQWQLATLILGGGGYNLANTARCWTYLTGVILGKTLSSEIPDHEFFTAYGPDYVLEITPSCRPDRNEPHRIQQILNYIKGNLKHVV
Description: HDAC8 mutant variants were generated, produced, and further purified as described previously.[32] Cysteines 28 and 314 were exchanged with serine using the following primer pairs: HD8_C28S_for, […]; HD8_C28S_rev, […]; HD8_C314S_for, […]; HD8_C314S_rev, […].
The enzyme activity assay was performed in assay buffer [25 mM Tris-HCl (pH 8.0), 50 mM NaCl, and 0.001% (v/v) Pluronic F-68] in black half-area 96-well microplates (Greiner Bio-One). For the initial screening, 10 nM HDAC8 was preincubated with the indicated compounds at 250 μM for 2 h at 30 °C. […] The reaction was initiated by the addition of 20 μM Boc-Lys(TFA)-AMC (Bachem). After substrate conversion at 30 °C for 15 min for HDAC8 and 1 h for HDAC8 mutants and HDAC4, the reaction was stopped by adding 1.67 μM suberoylanilide trifluoromethylketone (SATFMK). The deacetylated substrate was cleaved with 0.42 mg/mL trypsin to release fluorescent 7-amino-4-methylcoumarin (AMC), which was detected with a microplate reader (PHERAstar FS […]) with fluorescence excitation at 360 nm and emission at 460 nm. IC50 values were calculated by generating dose–response curves in GraphPad Prism 6 and fitting those to a four-parameter logistic model.

Row | Structure (SMILES) | IC50
1 | C[n+]1ccccc1I [A3+] | 24 ± 3 µM
2 | C[n+]1ccc(I)cc1 [C3+] | 17 ± 1 µM
3 | C[n+]1cccnc1Cl [D1+] | 13 ± 3 µM
4 | C[n+]1cncc(Br)c1 [F2+] | 19 ± 4 µM
5 | C[n+]1cncc(I)c1 [F3+] | 15 µM

The next lines start with the values.

Row | IC50 | Structure (SMILES)
6 | 4.2 ± 0.3 µM | C#Cc1cc[n+](C)cc1 [C6+]
7 | 35 ± 14 µM | C[n+]1cccnc1Br [D2+]
8 | 16 ± 2 µM | C[n+]1cccnc1I [D3+]
9 | 107 ± 10 µM | C#Cc1nccc[n+]1C [D6+]
10 | 64 ± 16 µM | C#Cc1c[n+](C)ccn1 [G6+]
